% of control and dTM data for 5 molecules are collected here from ChEMBL document CHEMBL5465560, “Selectivity Literature for EUbOPEN Chemogenomic Library” (2024).

The target in experiment [1] is Serine/threonine-protein kinase RIO2 (Homo sapiens) (UniProt Q9BVS4). Briefly: Selectivity interaction (Ambit KINOMEscan and KiNATiv profiling in Jurkat cells) EUB0000090b RIOK2. The experiment is classed as cell-based. The note with it: at 1 µM.
Experiment [2] deals with T1, Serine/threonine-protein kinase 36 (Homo sapiens) (UniProt Q9NRP7).
T1 sequence (whole entry): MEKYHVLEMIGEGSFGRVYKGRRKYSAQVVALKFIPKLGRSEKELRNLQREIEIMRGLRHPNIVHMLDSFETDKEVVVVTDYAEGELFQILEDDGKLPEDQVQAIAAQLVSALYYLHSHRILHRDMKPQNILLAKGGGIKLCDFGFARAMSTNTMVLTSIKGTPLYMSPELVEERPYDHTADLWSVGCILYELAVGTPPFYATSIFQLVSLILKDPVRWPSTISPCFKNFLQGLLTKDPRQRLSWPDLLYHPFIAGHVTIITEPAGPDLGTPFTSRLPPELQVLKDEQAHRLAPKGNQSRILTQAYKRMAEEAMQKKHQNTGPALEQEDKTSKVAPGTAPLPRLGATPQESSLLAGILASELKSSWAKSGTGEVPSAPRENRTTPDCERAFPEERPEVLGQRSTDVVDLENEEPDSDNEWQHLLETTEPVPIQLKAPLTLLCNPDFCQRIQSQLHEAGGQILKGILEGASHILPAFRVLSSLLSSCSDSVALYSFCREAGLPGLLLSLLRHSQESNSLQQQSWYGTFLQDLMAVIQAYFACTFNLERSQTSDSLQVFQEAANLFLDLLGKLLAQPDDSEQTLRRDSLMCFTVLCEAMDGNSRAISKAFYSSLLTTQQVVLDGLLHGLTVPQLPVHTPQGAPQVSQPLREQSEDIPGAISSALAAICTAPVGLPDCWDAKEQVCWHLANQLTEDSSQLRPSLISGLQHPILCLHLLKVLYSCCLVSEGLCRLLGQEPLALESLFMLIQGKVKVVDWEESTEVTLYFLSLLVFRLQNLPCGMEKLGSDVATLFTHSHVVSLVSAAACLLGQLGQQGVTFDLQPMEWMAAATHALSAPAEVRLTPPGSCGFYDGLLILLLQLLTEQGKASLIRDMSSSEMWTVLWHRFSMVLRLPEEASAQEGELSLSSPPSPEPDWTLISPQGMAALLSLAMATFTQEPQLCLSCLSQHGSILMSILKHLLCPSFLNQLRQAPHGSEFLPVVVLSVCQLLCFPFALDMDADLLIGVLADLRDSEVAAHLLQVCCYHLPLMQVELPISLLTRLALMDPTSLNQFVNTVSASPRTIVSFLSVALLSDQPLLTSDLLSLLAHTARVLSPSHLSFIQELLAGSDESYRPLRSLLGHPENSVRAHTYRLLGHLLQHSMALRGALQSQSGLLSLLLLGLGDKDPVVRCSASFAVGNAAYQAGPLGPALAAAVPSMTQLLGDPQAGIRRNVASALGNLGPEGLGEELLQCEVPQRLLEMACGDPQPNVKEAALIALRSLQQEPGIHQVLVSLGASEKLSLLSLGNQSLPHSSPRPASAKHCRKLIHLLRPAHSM
Briefly: Selectivity interaction (KinomeScan (DiscoverX)) EUB0000092b STK36. The note with it: at 10 µM.

The target of experiment [3] is Protein polybromo-1 (Homo sapiens) (UniProt Q86U86). Kind of experiment: Selectivity interaction (Bromodomain panel (DSF asssay)) EUB0000270b PBRM1.
Chain of Protein polybromo-1 (Homo sapiens) (Q86U86 whole entry): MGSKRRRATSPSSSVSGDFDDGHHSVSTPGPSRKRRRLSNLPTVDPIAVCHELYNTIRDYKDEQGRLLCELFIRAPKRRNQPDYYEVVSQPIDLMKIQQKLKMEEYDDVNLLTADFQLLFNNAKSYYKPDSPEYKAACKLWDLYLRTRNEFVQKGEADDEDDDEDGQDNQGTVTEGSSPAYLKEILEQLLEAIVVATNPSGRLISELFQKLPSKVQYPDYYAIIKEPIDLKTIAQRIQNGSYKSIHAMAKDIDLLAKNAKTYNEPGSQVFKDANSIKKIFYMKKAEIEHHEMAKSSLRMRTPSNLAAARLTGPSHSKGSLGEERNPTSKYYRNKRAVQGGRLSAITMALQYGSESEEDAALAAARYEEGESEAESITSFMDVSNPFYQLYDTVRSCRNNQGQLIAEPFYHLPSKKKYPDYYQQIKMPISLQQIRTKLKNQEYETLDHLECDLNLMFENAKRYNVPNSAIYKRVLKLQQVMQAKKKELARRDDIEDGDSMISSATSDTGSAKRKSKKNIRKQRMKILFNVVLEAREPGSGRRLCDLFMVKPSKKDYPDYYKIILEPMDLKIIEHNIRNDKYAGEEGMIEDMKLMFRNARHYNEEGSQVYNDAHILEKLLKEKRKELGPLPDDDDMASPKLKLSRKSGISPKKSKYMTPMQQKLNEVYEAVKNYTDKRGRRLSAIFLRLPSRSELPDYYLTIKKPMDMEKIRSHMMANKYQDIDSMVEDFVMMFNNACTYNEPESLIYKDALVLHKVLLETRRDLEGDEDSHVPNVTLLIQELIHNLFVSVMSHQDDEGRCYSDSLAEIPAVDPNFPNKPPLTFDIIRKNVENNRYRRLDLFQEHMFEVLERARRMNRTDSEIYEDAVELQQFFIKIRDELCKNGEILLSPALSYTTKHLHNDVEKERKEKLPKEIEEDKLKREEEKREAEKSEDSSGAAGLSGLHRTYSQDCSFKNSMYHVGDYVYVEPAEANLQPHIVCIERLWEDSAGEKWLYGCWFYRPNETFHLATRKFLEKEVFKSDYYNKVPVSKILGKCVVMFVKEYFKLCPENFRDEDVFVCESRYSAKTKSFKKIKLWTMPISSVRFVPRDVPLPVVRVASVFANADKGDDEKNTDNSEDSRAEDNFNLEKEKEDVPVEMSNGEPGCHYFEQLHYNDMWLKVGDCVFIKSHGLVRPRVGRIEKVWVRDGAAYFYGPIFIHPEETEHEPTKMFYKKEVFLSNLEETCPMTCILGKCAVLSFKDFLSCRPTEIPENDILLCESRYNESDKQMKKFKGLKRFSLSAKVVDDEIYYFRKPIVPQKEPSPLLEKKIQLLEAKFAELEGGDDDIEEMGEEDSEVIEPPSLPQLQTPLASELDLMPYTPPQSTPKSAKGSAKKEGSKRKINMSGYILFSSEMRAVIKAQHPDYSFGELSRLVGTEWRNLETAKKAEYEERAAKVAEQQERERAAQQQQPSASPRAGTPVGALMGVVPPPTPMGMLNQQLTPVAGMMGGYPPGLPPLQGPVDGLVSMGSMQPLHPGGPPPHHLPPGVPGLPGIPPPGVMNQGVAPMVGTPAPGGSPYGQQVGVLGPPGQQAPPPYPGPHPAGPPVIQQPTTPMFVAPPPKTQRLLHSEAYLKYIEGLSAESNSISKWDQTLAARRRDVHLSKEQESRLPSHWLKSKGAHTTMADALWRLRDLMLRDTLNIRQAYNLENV
Experiment [4] concerns the target Homeodomain-interacting protein kinase 1 (Homo sapiens, UniProt Q86Z02). Briefly: Selectivity interaction (KinomeScan (DiscoverX)) EUB0000045b HIPK1.
Experiment [5] addresses T2, Serine/threonine-protein kinase STK11 (Homo sapiens) (UniProt Q15831).
T2 sequence (whole entry): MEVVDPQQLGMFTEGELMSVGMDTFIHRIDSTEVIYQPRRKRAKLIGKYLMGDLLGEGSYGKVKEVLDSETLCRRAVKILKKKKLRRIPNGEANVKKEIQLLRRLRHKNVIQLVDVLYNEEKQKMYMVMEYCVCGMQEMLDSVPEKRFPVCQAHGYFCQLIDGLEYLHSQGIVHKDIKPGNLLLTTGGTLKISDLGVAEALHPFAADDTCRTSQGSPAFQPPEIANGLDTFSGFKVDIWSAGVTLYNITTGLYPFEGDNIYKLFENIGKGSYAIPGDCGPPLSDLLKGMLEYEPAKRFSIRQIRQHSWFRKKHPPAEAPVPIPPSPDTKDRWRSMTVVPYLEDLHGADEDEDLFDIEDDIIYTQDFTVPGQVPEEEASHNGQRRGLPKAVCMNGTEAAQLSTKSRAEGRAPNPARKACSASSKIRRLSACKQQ
Kind of experiment: Selectivity interaction (KinomeScan (DiscoverX)) EUB0000045b STK11.

In experiment [6] the target is T3, Serine/threonine-protein kinase TAO1 (Homo sapiens) (UniProt Q7L7X3).
T3 sequence (whole entry): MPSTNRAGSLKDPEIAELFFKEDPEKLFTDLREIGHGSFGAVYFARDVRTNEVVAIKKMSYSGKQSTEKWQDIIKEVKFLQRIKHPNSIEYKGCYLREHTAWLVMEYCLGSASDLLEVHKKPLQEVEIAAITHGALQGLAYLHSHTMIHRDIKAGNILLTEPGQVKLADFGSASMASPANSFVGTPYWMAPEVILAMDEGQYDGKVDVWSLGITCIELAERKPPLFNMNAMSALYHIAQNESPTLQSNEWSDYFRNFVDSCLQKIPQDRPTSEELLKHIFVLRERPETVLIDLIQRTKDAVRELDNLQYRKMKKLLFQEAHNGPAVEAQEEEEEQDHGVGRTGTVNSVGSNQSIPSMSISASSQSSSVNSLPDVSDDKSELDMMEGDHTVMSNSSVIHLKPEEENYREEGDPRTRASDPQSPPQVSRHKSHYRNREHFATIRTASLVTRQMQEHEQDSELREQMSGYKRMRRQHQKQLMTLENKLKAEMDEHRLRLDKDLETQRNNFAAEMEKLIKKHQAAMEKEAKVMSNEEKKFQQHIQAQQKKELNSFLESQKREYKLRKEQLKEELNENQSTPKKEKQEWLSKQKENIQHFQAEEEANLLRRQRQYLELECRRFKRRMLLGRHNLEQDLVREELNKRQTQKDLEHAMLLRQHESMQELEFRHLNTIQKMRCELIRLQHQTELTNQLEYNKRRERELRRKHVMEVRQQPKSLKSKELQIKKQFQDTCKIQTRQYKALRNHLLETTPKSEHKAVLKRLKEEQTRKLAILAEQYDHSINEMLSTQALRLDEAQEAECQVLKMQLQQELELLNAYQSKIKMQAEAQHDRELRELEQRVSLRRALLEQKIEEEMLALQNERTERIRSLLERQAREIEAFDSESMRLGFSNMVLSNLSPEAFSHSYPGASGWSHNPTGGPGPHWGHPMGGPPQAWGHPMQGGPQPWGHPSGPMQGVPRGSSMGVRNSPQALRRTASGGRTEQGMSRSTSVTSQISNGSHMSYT
Kind of experiment: Selectivity interaction (KinomeScan (DiscoverX)) EUB0000618a TAOK1. The note with it: at 10 µM.

Chain of Homeodomain-interacting protein kinase 1 (Q86Z02 whole entry, looked up): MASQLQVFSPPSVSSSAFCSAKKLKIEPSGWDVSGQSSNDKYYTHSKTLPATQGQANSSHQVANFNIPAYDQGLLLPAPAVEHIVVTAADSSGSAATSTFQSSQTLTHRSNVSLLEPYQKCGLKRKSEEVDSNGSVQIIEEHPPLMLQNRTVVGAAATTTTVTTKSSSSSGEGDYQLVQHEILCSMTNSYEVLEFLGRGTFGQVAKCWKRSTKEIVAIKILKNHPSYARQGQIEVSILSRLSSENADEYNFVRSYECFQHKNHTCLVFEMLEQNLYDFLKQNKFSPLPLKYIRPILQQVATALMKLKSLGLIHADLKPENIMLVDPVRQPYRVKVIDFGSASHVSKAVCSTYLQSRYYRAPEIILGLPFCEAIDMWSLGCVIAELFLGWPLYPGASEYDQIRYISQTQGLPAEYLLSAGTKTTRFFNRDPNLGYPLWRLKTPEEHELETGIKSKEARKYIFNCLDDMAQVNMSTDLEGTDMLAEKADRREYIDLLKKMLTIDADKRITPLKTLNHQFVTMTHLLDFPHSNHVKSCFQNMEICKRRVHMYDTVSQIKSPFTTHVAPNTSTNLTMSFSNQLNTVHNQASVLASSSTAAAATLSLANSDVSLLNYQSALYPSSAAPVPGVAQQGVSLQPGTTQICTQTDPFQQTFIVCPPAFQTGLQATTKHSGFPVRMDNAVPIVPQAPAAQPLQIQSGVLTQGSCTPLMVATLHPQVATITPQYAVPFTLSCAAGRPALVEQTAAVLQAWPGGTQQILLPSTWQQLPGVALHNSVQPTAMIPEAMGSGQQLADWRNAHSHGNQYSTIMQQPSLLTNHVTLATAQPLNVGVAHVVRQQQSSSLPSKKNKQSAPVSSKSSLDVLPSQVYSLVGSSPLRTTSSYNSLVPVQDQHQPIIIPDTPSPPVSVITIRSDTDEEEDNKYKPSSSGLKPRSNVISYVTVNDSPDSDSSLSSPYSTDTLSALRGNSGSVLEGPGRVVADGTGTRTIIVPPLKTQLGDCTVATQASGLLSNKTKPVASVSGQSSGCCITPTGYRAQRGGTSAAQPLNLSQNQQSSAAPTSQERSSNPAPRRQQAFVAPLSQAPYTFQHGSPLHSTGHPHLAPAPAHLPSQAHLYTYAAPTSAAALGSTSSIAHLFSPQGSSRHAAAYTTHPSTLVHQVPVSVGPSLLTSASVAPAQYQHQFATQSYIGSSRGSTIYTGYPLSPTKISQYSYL
Chain of Serine/threonine-protein kinase RIO2 (Homo sapiens) (Q9BVS4 whole entry, looked up): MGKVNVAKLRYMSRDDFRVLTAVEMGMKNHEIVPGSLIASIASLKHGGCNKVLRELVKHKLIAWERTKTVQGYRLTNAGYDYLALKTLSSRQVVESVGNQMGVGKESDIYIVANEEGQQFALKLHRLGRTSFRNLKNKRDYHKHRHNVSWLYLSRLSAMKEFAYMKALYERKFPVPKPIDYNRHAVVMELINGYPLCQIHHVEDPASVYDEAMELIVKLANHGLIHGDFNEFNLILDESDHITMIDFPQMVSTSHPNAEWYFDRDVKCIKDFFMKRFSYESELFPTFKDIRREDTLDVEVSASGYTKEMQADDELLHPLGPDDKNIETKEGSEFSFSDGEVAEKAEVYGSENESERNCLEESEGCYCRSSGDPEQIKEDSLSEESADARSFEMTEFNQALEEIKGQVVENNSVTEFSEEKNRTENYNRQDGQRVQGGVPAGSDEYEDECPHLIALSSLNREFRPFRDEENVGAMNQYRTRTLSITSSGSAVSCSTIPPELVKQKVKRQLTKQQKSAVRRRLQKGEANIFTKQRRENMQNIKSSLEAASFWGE

In the case of `CN(C)C/C=C/C(=O)Nc1ccc(C(=O)N2CCCC(Nc3ncc(Cl)c(-c4c[nH]c5ccccc45)n3)C2)cc1` (stereo not drawn), the % of control in experiment [1] turned out to be 10%.

In the case of `CCC(=O)N1CCN(c2ccc(-n3c(=O)ccc4cnc5ccc(-c6cnc7ccccc7c6)cc5c43)cc2C(F)(F)F)CC1`, the % of control in experiment [2] came out at 17%. For the molecule `Cc1cc(CN)cc(C)c1-c1ncn(C)c1-c1cncn1C`, in experiment [3], the dTM is -2.3 K.

With `C=CC(=O)Nc1cc(-n2c(=O)ccc3cnc4ccc(-c5ccc(NS(C)(=O)=O)cc5)cc4c32)ccc1C`, the % of control was 100% in experiment [4] (at 1 µM), 56% in experiment [4] (at 10 µM), 79% in experiment [5] (at 1 µM) and 100% in experiment [5] (at 10 µM). Molecule `O[C@H]1CC[C@H](Nc2ncc3nc(Nc4c(F)cc(F)cc4F)n([C@H]4CCOC4)c3n2)CC1` came in with a % of control in experiment [6] of 81%.
